Laboratory results reported in PubChem BioAssay AID330 (DTP/NCI, 2004).
“And” between values parts separate entries of the source, which are not always exact repeats. Equal values may be shown once. Inconclusive results and toxic doses are left out.

Test system: P388 leukemia ip, CD2F1 mice, survival T/C
Assay: NCI In Vivo Anticancer Drug Screen. Data for tumor model P388 Leukemia (intraperitoneal) in CD2F1 (CDF1) mice
Conditions: endpoint: median survival time, higher = longer survival
Summary of the method: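 Mice carrying the transplanted tumor received test compound or vehicle. Survival was recorded in each group, and the value is the treated-group measurement divided by that of the vehicle-treated control group.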

[1] = dose: 50.0 mg/kg/injection, schedule: Q01DX009 (ip), vehicle: Klucel (hydroxypropylcellulose) (HPC)
[2] = dose: 100.0 mg/kg/injection, schedule: Q01DX009 (ip), vehicle: Klucel (hydroxypropylcellulose) (HPC)
[3] = dose: 200.0 mg/kg/injection, schedule: Q01DX009 (ip), vehicle: Klucel (hydroxypropylcellulose) (HPC)
[4] = dose: 50.0 mg/kg/injection, schedule: Q01DX009 (ip), vehicle: saline
[5] = dose: 100.0 mg/kg/injection, schedule: Q01DX009 (ip), vehicle: saline

## CCN(CC)c1ccc(/C=C2\CCc3ccccc3C2=O)cc1
[1]
  T/C: 108 % of control
[2]
  T/C: 111 % of control
[3]
  T/C: 106 % of control

## CCOC(=O)COc1cc2c(cc1C(CC)c1ccccc1)OCO2 (stereo unspecified)
dose: 50.0 mg/kg/injection, schedule: Q01DX005 (ip), vehicle: Klucel (hydroxypropylcellulose) (HPC)
  T/C: 97 % of control
dose: 100.0 mg/kg/injection, schedule: Q01DX005 (ip), vehicle: Klucel (hydroxypropylcellulose) (HPC)
  T/C: 102 % of control
dose: 200.0 mg/kg/injection, schedule: Q01DX005 (ip), vehicle: Klucel (hydroxypropylcellulose) (HPC)
  T/C: 102 % of control

## COc1cc(/C=C2/Cc3ccccc3C2=O)ccc1O
dose: 60.0 mg/kg/injection, schedule: Q01DX005 (ip), vehicle: saline
  T/C: 106 % of control
dose: 120.0 mg/kg/injection, schedule: Q01DX005 (ip), vehicle: saline
  T/C: 106 % of control
dose: 240.0 mg/kg/injection, schedule: Q01DX005 (ip), vehicle: saline
  T/C: 96 % of control

## CCC(C)=C(C#N)NC(C)(C)C (mixture of isomers)
[4]
  T/C: 106 % of control
[5]
  T/C: 100 % of control
dose: 200.0 mg/kg/injection, schedule: Q01DX009 (ip), vehicle: saline
  T/C: 110 % of control

## COc1cc2c(cc1OC)C1N(CC2)C(=O)NC1(C)C (stereo unspecified)
dose: 60.0 mg/kg/injection, schedule: Q01DX005 (ip), vehicle: saline with Tween-80
  T/C: 97 % of control
dose: 120.0 mg/kg/injection, schedule: Q01DX005 (ip), vehicle: saline with Tween-80
  T/C: 103 % of control
dose: 240.0 mg/kg/injection, schedule: Q01DX005 (ip), vehicle: saline with Tween-80
  T/C: 98 % of control

## NNC(=O)COCC(=O)NN
dose: 25.0 mg/kg/injection, schedule: Q01DX009 (ip), vehicle: Klucel (hydroxypropylcellulose) (HPC)
  T/C: 106 % of control
[1]
  T/C: 100 % of control
[2]
  T/C: 104 % of control
[3]
  T/C: 100 % of control

## O=C1OC(c2cccnc2)OC(c2ccccc2)=C1C(=O)c1ccccc1 (stereo unspecified)
dose: 60.0 mg/kg/injection, schedule: Q01DX005 (ip), vehicle: Klucel (hydroxypropylcellulose) (HPC)
  T/C: 107 % of control
dose: 120.0 mg/kg/injection, schedule: Q01DX005 (ip), vehicle: Klucel (hydroxypropylcellulose) (HPC)
  T/C: 98 % of control
dose: 240.0 mg/kg/injection, schedule: Q01DX005 (ip), vehicle: Klucel (hydroxypropylcellulose) (HPC)
  T/C: 97 % of control

## Cc1[nH]nc2c(Cc3ccccc3)n[nH]c(=O)c12
[1]
  T/C: 102 % of control
[2]
  T/C: 104 % of control
[3]
  T/C: 112 % of control

## CCCCCCCCCCCC(=O)OC/C=C/COC(=O)c1ccccc1
[1]
  T/C: 100 % of control
[2]
  T/C: 108 % of control
[3]
  T/C: 96 % of control

## NC(Cc1ccccc1)C(=O)OCN1C(=O)C2C3C=CC(C2C1=O)C1C2C(=O)N(COC(=O)C(N)Cc4ccccc4)C(=O)C2C31 (stereo unspecified)
dose: 12.5 mg/kg/injection, schedule: Q01DX009 (ip), vehicle: water
  T/C: 103 % of control
dose: 25.0 mg/kg/injection, schedule: Q01DX009 (ip), vehicle: saline
  T/C: 100 % of control and 102 % of control
dose: 25.0 mg/kg/injection, schedule: Q01DX009 (ip), vehicle: water
  T/C: 106 % of control and 113 % of control and 103 % of control
[4]
  T/C: 110 % of control
dose: 50.0 mg/kg/injection, schedule: Q01DX009 (ip), vehicle: water
  T/C: 109 % of control and 124 % of control
[5]
  T/C: 184 % of control
dose: 100.0 mg/kg/injection, schedule: Q01DX009 (ip), vehicle: water
  T/C: 189 % of control and 197 % of control
dose: 150.0 mg/kg/injection, schedule: Q01DX009 (ip), vehicle: saline
  T/C: 192 % of control

## c1ccc2c(c1)C1c3cccc[n+]3C2C2C1CC1C3c4ccccc4C(C12)[n+]1ccccc13 (stereo unspecified)
dose: 1.56 mg/kg/injection, schedule: Q01DX005 (ip), vehicle: saline with Tween-80
  T/C: 102 % of control
dose: 3.13 mg/kg/injection, schedule: Q01DX005 (ip), vehicle: saline with Tween-80
  T/C: 102 % of control
dose: 6.25 mg/kg/injection, schedule: Q01DX005 (ip), vehicle: saline with Tween-80
  T/C: 104 % of control and 94 % of control

## O=c1[nH]c(=S)nc2nc[nH]n12
dose: 25.0 mg/kg/injection, schedule: Q01DX009 (ip), vehicle: saline with Tween-80
  T/C: 100 % of control
dose: 50.0 mg/kg/injection, schedule: Q01DX005 (ip), vehicle: saline with Tween-80
  T/C: 98 % of control
dose: 50.0 mg/kg/injection, schedule: Q01DX009 (ip), vehicle: saline with Tween-80
  T/C: 97 % of control
dose: 100.0 mg/kg/injection, schedule: Q01DX005 (ip), vehicle: saline with Tween-80
  T/C: 100 % of control
dose: 100.0 mg/kg/injection, schedule: Q01DX009 (ip), vehicle: saline with Tween-80
  T/C: 100 % of control
dose: 200.0 mg/kg/injection, schedule: Q01DX005 (ip), vehicle: saline with Tween-80
  T/C: 103 % of control
dose: 200.0 mg/kg/injection, schedule: Q01DX009 (ip), vehicle: saline with Tween-80
  T/C: 106 % of control
